Experimental data as given in publication PMC2799658, “A Multidimensional Strategy to Detect Polypharmacological Targets in the Absence of Structural and Sequence Homology” (PLoS Computational Biology, 2010).

Columns and labels:
[1] = biological target: T1, H. sapiens mitochondrial 2-enoyl thioester reductase (HsETR1) (Homo sapiens, UniProt Q9BV79); assay: enzyme inhibition assay (details in Text S1); format: biochemical
T1 construct: gene MECR; isolated protein; construct and host not described in main text (assay details in Text S1); 1ZSY is the docked crystal structure
T1 sequence (Q9BV79 54-373): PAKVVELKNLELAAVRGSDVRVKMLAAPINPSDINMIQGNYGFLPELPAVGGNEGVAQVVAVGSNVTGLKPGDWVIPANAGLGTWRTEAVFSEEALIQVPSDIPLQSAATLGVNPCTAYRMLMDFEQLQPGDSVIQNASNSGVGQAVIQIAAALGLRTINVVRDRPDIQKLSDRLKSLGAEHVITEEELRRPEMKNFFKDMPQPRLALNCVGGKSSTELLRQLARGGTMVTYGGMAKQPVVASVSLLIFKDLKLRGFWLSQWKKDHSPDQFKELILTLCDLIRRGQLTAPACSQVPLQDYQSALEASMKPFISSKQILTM

[2] = biological target: T2, T. brucei UDP-galactose 4′ epimerase (TbGalE) (Trypanosoma brucei, UniProt Q8T8E9); assay: enzyme inhibition assay (details in Text S1); format: biochemical
T2 construct: gene galE; isolated protein; construct and host not described in main text (assay details in Text S1); 1GY8 is the docked crystal structure
T2 sequence (Q8T8E9 1-395): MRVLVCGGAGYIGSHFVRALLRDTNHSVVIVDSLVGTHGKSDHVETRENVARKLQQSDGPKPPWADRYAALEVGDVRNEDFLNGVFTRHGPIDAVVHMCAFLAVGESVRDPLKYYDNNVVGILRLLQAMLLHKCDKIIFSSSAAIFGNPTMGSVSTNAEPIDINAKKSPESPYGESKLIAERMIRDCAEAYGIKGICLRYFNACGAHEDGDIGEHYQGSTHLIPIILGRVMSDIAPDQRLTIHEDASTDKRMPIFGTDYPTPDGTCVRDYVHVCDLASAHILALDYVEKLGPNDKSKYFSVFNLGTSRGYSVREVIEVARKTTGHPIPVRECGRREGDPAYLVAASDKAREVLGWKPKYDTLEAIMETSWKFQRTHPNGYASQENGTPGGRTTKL

Which IC50 [1] does the source give for `O=S(=O)(O)c1cc(O)c2c(O)c(N=Nc3cccc4ccccc34)c(S(=O)(=O)O)cc2c1` [compound 1, 4,5-dihydroxy-3-(1-naphthyldiazenyl)-2,7-naphthalenedisulfonic acid] here?
The IC50 was roughly 33.5 µM.

What about the IC50 [2] of the same compound?
The IC50 was 700 ± 200 nM.
